{"source": "patent US20240215910A1", "about": "“A METHOD FOR […] PRO-OR ANTI […] TEST COMPOUNDS” (GW Research Limited, priority 2020, published 2024)", "key": {"[1]": {"test_system": "tonic hind limb extensor convulsion from a single electroshock", "assay": "mini-MEST: maximal electroshock seizure threshold test using minimal sample sizes (n=6/group, log-scale current steps)", "conditions": "for % change from vehicle / CC50 ± SEM: N=6", "excerpt": "(§1) All animals were weighed at the beginning of the study and assigned to treatment groups (n=6/group) based on a mean distribution of body weight across groups.\nThe first animal within a treatment group was given a shock at the expected or estimated CC50 current. For subsequent animals, the current was lowered or raised depending on the convulsion outcome from the preceding animal in log scale intervals. Data generated from each treatment group were used to calculate the CC50±SEM values for the treatment group (see Table 5 for details).\nas §1\nThe first animal within a treatment group was given a shock at the expected or estimated CC50 current. For subsequent animals, the current was lowered or raised depending on the convulsion outcome from the preceding animal in log scale intervals. Data generated from each treatment group were used to calculate the CC50±SEM values for the treatment group (see Table 10 for details).\nas §1\nThe first animal within a treatment group was given a shock at the expected or estimated CC50 current. For subsequent animals, the current was lowered or raised depending on the convulsion outcome from the preceding animal in log scale intervals. Data generated from each treatment group were used to calculate the CC50±SEM values for the treatment group (see Table 15 for details)."}, "[2]": {"test_system": "tonic hind limb extensor convulsion from a single electroshock; mouse model of generalised seizure", "assay": "standard maximal electroshock seizure threshold (MEST) test (n=12/group, 5 mA intervals)", "conditions": "Example 4, 30 min post dose; for CC50 +/− SEM: vehicle CC50 24.3", "experimental": "The efficacy of Compound 3 was tested in a mouse model of generalised seizure, the maximal electroshock seizure threshold (MEST) test.\nAll animals were weighed at the beginning of the study and randomly assigned to treatment groups (n=12/group) based on a mean distribution of body weight across groups.\nThe first animal within a treatment group was given a shock at the expected or\nestimated CC50 current. For subsequent animals, the current was lowered or raised depending on the convulsions outcome from the preceding animal in 5 mA intervals.\nData generated from each treatment group were used to calculate the CC50±SEM values for the treatment group.\nTest compound effects were also calculated as percentage change in CC50 from the vehicle control group.\nSignificant difference between drug-treated animals and controls were assessed according to Litchfield and Wilcoxon (1949)."}}}
{"molecule": "C=C(C)[C@@H]1CCC(C)=C[C@H]1c1c(O)cc(-c2cnn(CC(C)(C)C)c2)cc1O", "note": "[Compound 1]", "values": [{"measurement": "% change from vehicle", "setting": "[1]; Example 1, 50 mg/kg i.p., 30 min post dose", "value": 388, "unit": "%"}, {"measurement": "CC50 ± SEM", "setting": "[1]; Example 1, 50 mg/kg i.p., 30 min post dose, vehicle CC50 24.5", "value": 119.5, "unit": "mA"}]}
{"molecule": "C=C(C)[C@@H]1CCC(C)=C[C@H]1c1c(O)cc(-c2cn(C)nn2)cc1O", "note": "[Compound 2]", "values": [{"measurement": "% change from vehicle", "setting": "[1]; Example 2, 5 mg/kg i.p., 15 min post dose", "value": 26, "unit": "%"}, {"measurement": "CC50 ± SEM", "setting": "[1]; Example 2, 5 mg/kg i.p., 15 min post dose, vehicle CC50 22.5", "value": "28.3 +/− 1.1 mA"}, {"measurement": "% change from vehicle", "setting": "[1]; Example 2, 50 mg/kg i.p., 30 min post dose", "value": 213, "unit": "%"}, {"measurement": "CC50 ± SEM", "setting": "[1]; Example 2, 50 mg/kg i.p., 30 min post dose, vehicle CC50 22.5", "value": "70.5 +/− 5.8 mA"}]}
{"molecule": "C=C(C)[C@@H]1CCC(C)=C[C@H]1c1c(O)cc(-c2cnn(C)c2)cc1O", "note": "[Compound 3]", "values": [{"measurement": "% change from vehicle", "setting": "[1]; Example 3, 200 mg/kg i.p., 120 min post dose", "value": ">636", "unit": "%"}, {"measurement": "CC50 ± SEM", "setting": "[1]; Example 3, 200 mg/kg i.p., 120 min post dose, no \"+\" seen, vehicle CC50 23.5", "value": ">173", "unit": "mA"}, {"measurement": "seizure threshold as compared to vehicle (in words)", "setting": "[1]; Example 3, 200 mg/kg i.p., 120 mins before testing", "value": "clear increase in seizure threshold"}, {"measurement": "% change from vehicle", "setting": "[2]; 2 mg/kg i.p., N=12", "value": 27, "unit": "%"}, {"measurement": "CC50 +/− SEM", "setting": "[2]; 2 mg/kg i.p., N=12", "value": "30.8 ± 1.0", "unit": "mA"}, {"measurement": "% change from vehicle", "setting": "[2]; 20 mg/kg i.p., N=12", "value": 116, "unit": "%"}, {"measurement": "CC50 +/− SEM", "setting": "[2]; 20 mg/kg i.p., N=12", "value": "52.5 ± 1.3", "unit": "mA"}, {"measurement": "% change from vehicle", "setting": "[2]; 200 mg/kg i.p., N=12", "value": 712, "unit": "%"}, {"measurement": "CC50 +/− SEM", "setting": "[2]; 200 mg/kg i.p., N=12", "value": "197.5 ± 20.4", "unit": "mA"}, {"measurement": "effect on MEST across doses (in words)", "setting": "[2]; 2, 20 and 200 mg/kg i.p.", "value": "dose-related increase in MEST"}]}
{"molecule": "CN1C(=O)CN=C(c2ccccc2)c2cc(Cl)ccc21", "note": "[Diazepam, diazepam, reference compound]", "values": [{"measurement": "% change from vehicle", "setting": "[1]; Example 1, 2.5 mg/kg i.p., 30 min post dose", "value": 206, "unit": "%"}, {"measurement": "% change from vehicle", "setting": "[1]; Example 2, 2.5 mg/kg i.p., 30 min post dose", "value": 296, "unit": "%"}, {"measurement": "% change from vehicle", "setting": "[1]; Example 3, 2.5 mg/kg i.p., 30 min post dose", "value": 98, "unit": "%"}, {"measurement": "% change from vehicle", "setting": "[2]; 2.5 mg/kg i.p., N=11", "value": 223, "unit": "%"}]}
